Laboratory results: ChEMBL document CHEMBL1128027, “Total synthesis of a novel benz[A]anthracycline analog of the antitumor agent 4-demethoxydaunorubicin” (Bioorg Med Chem Lett, 1994)

Test system: CCRF-CEM
Experiment: Cytotoxicity tested in vitro against T-lymphoid leukemic cell line
Type: functional, cell-based
Conditions: Homo sapiens

SMILES | IC50 [nM]
CC(=O)[C@@]1(O)Cc2c3c(c(O)c(O)c2[C@H](OC2CC(N)C(O)C(C)O2)C1)C(=O)c1ccccc1C3=O (stereo partly drawn) | 1000
CC(=O)[C@]1(O)Cc2c3c(c(O)c(O)c2[C@@H](OC2CC(N)C(O)C(C)O2)C1)C(=O)c1ccccc1C3=O (stereo partly drawn) | 1000
COc1cccc2c1C(=O)c1c(O)c3c(c(O)c1C2=O)C[C@@](O)(C(=O)CO)C[C@@H]3O[C@H]1C[C@H](N)[C@H](O)[C@H](C)O1 [DOXORUBICIN] | 20
